Data as given in ChEMBL document CHEMBL6078644, “Azobenzene-Tagged Photopeptides Exhibiting Excellent Selectivity and Light-Induced Cytotoxicity in MCF-7 Cells over HeLa and A549” (J Med Chem, 2024).
Active and inactive are the calls of the source. No cut-off for these calls is given here.

Experiments:
[1] = tested on: MCF7; assay: Cytotoxicity against human MCF7 cells assessed as reduction in cell viability incubated for 48 hrs with compound prepared under 365 nm UV light condition for 1 hrs by CellTIter blue reagent based fluorescence plate reader analysis
[2] = tested on: A549; assay: Cytotoxicity against human A549 cells assessed as reduction in cell viability incubated for 48 hrs with compound prepared under 365 nm UV light condition for 1 hrs by CellTIter blue reagent based fluorescence plate reader analysis
[3] = tested on: HeLa; assay: Cytotoxicity against human HeLa cells assessed as reduction in cell viability incubated for 48 hrs with compound prepared under 365 nm UV light condition for 1 hrs by CellTIter blue reagent based fluorescence plate reader analysis
[4] = Potency index, ratio of E-enrichment isomer IC50 to test compound (Z-enrichment isomer) IC50 for cytotoxicity against human HeLa cells assessed as reduction in c ell viability incubated for 48 hrs by CellTiter blue reagent based fluorescence plate reader analysis; format: functional
[5] = Potency index, ratio of E-enrichment isomer IC50 to test compound (Z-enrichment isomer) IC50 for cytotoxicity against human MCF7 cells assessed as reduction in c ell viability incubated for 48 hrs by CellTiter blue reagent based fluorescence plate reader analysis; format: functional
[6] = Potency index, ratio of E-enrichment isomer IC50 to test compound (Z-enrichment isomer) IC50 for cytotoxicity against human A549 cells assessed as reduction in c ell viability incubated for 48 hrs by CellTiter blue reagent based fluorescence plate reader analysis; format: functional
[7] = tested on: MCF7; assay: Cytotoxicity against human MCF7 cells assessed as reduction in cell viability incubated for 48 hrs with compound prepared under dark condition by CellTIter blue reagent based fluorescence plate reader analysis; format: functional; conditions: MCF7, 48 h
[8] = tested on: HeLa; assay: Cytotoxicity against human HeLa cells assessed as reduction in cell viability incubated for 48 hrs with compound prepared under dark condition by CellTIter blue reagent based fluorescence plate reader analysis
[9] = tested on: A549; assay: Cytotoxicity against human A549 cells assessed as reduction in cell viability incubated for 48 hrs with compound prepared under dark condition by CellTIter blue reagent based fluorescence plate reader analysis; format: functional; conditions: A549, 48 h
[10] = biological target: T1, Proteasome component C5 (Homo sapiens) (UniProt P20618); assay: Inhibition of human 20S proteosome beta1 subunit using […] as substrate preincubated for 30 mins with compound prepared under 365 nm UV light condition for 1 hrs followed by substrate addition and measured after 12 hrs by fluorescence plate reader analysis; conditions: time 12.5 hrs
T1 sequence (whole entry): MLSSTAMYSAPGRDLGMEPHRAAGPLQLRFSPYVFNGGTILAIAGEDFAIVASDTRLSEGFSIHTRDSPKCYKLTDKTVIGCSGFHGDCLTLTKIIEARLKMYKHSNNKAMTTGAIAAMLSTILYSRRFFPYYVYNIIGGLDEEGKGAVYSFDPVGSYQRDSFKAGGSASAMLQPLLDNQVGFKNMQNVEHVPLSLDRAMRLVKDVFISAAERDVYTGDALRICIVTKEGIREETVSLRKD

[11] = Half-life of compound under dark condition measured for 150 hrs at 6 hrs interval by UV-spectroscopy; format: physicochemical
[12] = biological target: Proteasome Macropain subunit (Homo sapiens) (UniProt P49721); assay: Inhibition of human 20S proteosome beta2 subunit using Bz-VGR-AMC as substrate preincubated for 30 mins with compound prepared under 365 nm UV light condition for 1 hrs followed by substrate addition and measured after 12 hrs by fluorescence plate reader analysis; conditions: time 12.5 hrs
[13] = biological target: T1, Proteasome component C5 (Homo sapiens); assay: Inhibition of human 20S proteosome beta1 subunit using […] as substrate preincubated for 30 mins with compound prepared under dark condition followed by substrate addition and measured after 12 hrs by fluorescence plate reader analysis; conditions: time 12.5 hrs
[14] = biological target: Proteasome Macropain subunit (Homo sapiens) (UniProt P49721); assay: Inhibition of human 20S proteosome beta2 subunit using Bz-VGR-AMC as substrate preincubated for 30 mins with compound prepared under dark condition followed by substrate addition and measured after 12 hrs by fluorescence plate reader analysis; conditions: time 12.5 hrs
[15] = Retention time of compound by HPLC analysis; format: physicochemical

Proteasome Macropain subunit (Homo sapiens), sequence (P49721 whole entry): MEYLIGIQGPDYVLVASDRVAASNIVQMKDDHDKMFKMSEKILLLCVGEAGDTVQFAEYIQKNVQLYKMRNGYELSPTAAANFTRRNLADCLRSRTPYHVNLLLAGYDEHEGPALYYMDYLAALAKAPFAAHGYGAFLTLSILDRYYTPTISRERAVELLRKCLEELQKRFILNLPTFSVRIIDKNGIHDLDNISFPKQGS

Compound `CC(C)CC(NC(=O)[C@H](Cc1ccccc1)NC(=O)c1ccc(/N=N\c2ccccc2)cc1)B(O)O` (some centres not stated) has an IC50 [1] of 6.7 µM and an IC50 [2] of 17.3 µM.

In the case of `CC(C)C[C@H](NC(=O)[C@H](Cc1ccc(/N=N\c2ccccc2)cc1)NC(=O)OC(C)(C)C)B1OC2C[C@@H]3C[C@@H](C3(C)C)[C@@]2(C)O1` (some centres not stated), the IC50 [3] is reported as 38.1 µM, the “Ratio IC50” value [4] is reported as 1 and the IC50 [1] is reported as 27.9 µM. For the same compound, the “Ratio IC50” value [5] was 1.4, the IC50 [2] was 66.4 µM and the “Ratio IC50” value [6] was 0.79.

Work on `CC(C)C[C@H](NC(=O)[C@H](Cc1ccc(/N=N/c2ccccc2)cc1)NC(=O)OC(C)(C)C)B1OC2C[C@@H]3C[C@@H](C3(C)C)[C@@]2(C)O1` (some centres not stated) yielded an IC50 [7] of 40.1 µM, an IC50 [8] of 38.2 µM and an IC50 [9] of 52.5 µM.

In the case of `Cc1cc(C)cc(/N=N\c2cccc(C(=O)N[C@@H](Cc3c[nH]c4ccccc34)C(=O)N[C@@H](CC(C)C)C(=O)N[C@H](/C=C/S(C)(=O)=O)CC(C)C)c2)c1`, the IC50 [3] is reported as 0.25 µM, the inhibition [10] is reported as “inactive” and the half-life [11] is reported as greater than 100 h. For the same compound, the IC50 [1] was 5.44 µM, the inhibition [12] was “inactive” and the IC50 [2] was 0.42 µM.

For `Cc1cc(C)cc(/N=N\c2cccc(C(=O)N[C@H](C(=O)N[C@@H](Cc3ccccc3)C(=O)N[C@H](/C=C/S(C)(=O)=O)CC(C)C)C(C)C)c2)c1`, the IC50 [3] was 2.9 µM, the inhibition [10] was “inactive” and the half-life [11] was greater than 100 h. For the same compound, the IC50 [1] was 2.25 µM, the inhibition [12] was “inactive” and the IC50 [2] was 6.95 µM.

For `Cc1cc(C)cc(/N=N/c2cccc(C(=O)N[C@@H](Cc3c[nH]c4ccccc34)C(=O)N[C@@H](CC(C)C)C(=O)N[C@H](/C=C/S(C)(=O)=O)CC(C)C)c2)c1`, the inhibition [13] was “inactive”, the IC50 [7] was 10.6 µM and the IC50 [8] was 0.285 µM. The IC50 [9] was 1.98 µM and the inhibition [14] was “inactive”.

With `Cc1cc(C)cc(N=Nc2cccc(C(=O)N[C@@H](Cc3ccccc3)C(=O)N[C@@H](CC(C)C)C(=O)N[C@H](C=CS(C)(=O)=O)CC(C)C)c2)c1` the IC50 [3] was 0.32 µM, the inhibition [10] was “inactive” and the half-life [11] was greater than 100 h. For the same compound, the IC50 [1] was 7.51 µM, the inhibition [12] was “inactive” and the IC50 [2] was 1.9 µM.

With `Cc1cc(C)cc(/N=N/c2cccc(C(=O)N[C@@H](CC(C)C)C(=O)N[C@@H](CC(C)C)C(=O)N[C@H](/C=C/S(C)(=O)=O)CC(C)C)c2)c1` the inhibition [13] was “inactive”, the Retention_time [15] was 11.1 min and the IC50 [7] was 8.36 µM. The IC50 [8] was 0.42 µM, the IC50 [9] was 2.56 µM and the inhibition [14] was “inactive”.

For `Cc1cc(C)cc(/N=N/c2cccc(C(=O)N[C@@H](Cc3ccccc3)C(=O)N[C@@H](CC(C)C)C(=O)N[C@H](/C=C/S(C)(=O)=O)CC(C)C)c2)c1`, the inhibition [13] was “inactive”, the IC50 [7] was 35.8 µM and the IC50 [8] was 1.23 µM. The IC50 [9] was 2.59 µM and the inhibition [14] was “inactive”.

In the case of `Cc1cc(C)cc(/N=N\c2cccc(C(=O)N[C@@H](CC(C)C)C(=O)N[C@@H](CC(C)C)C(=O)N[C@H](/C=C/S(C)(=O)=O)CC(C)C)c2)c1`, the IC50 [3] is reported as 0.28 µM, the inhibition [10] is reported as “inactive” and the half-life [11] is reported as greater than 100 h. The IC50 [1] was 4.39 µM, the inhibition [12] was “inactive” and the Retention_time [15] was 13.5 min. For the same compound, the IC50 [2] was 0.73 µM.

With `Cc1cc(C)cc(/N=N/c2cccc(C(=O)N[C@H](C(=O)N[C@@H](Cc3ccccc3)C(=O)N[C@H](/C=C/S(C)(=O)=O)CC(C)C)C(C)C)c2)c1` the inhibition [13] was “inactive”, the IC50 [7] was 48.5 µM and the IC50 [8] was 9.6 µM. For the same compound, the IC50 [9] was 45.9 µM and the inhibition [14] was “inactive”.
